Target: T1, GCase (Homo sapiens, UniProt P04062)
T1 construct: endogenous in cells; host or cells: HeLa cells
T1 sequence (P04062 40-536): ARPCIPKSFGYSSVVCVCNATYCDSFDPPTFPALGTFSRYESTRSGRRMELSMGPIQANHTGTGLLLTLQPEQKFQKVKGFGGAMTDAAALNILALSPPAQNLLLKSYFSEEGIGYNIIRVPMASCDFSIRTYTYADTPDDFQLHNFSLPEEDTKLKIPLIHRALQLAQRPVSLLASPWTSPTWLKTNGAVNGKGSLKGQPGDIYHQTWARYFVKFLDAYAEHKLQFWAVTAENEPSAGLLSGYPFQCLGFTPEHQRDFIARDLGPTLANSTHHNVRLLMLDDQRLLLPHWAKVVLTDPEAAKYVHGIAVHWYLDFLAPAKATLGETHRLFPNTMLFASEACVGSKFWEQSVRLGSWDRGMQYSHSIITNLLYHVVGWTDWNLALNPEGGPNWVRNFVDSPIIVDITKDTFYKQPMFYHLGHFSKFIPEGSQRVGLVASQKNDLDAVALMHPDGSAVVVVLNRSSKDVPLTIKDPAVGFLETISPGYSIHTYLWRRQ
Assay: live cell PFB assay in HELA cells for activation of GCase
Assay type: cell-based
Experimental: Exemplary compounds were evaluated for activation of GCase in a live cell PFB assay in HELA cells (essentially as described in Ysselstein et al., “LRRK2 kinase activity regulates lysosomal glucocerebrosidase in neurons derived from Parkinson's disease patients” Nature Communications (2019) 10:5570). […] EC50 ranges: A: <10 μM; B: >10-50 μM; C: >50-100 μM; D: >100 μM.

FC(F)Cn1ncc2ncc(N3CC[C@@H]4CN(c5ccc(C(F)(F)F)nc5)C[C@@H]4C3)nc21 (racemic) [Compound 12, rac-5-[(3aR,7aS)-5-[1-(2,2-difluoroethyl)-1H-pyrazolo[3,4-b]pyrazin-6-yl]-octahydro-1H-pyrrolo[3,4-c]pyridin-2-yl]-2-(trifluoromethyl)pyridine]
EC50: 10 to 50 µM

FC(F)Cn1ncc2ncc(N[C@@H]3C[C@@H]4CN(c5ncccc5C(F)(F)F)C[C@@H]4C3)nc21 [Compound 38, (3aR,5S,6aS)—N-[1-(2,2-difluoroethyl)-1H-pyrazolo[3,4-b]pyrazin-6-yl]-2-[3-(trifluoromethyl)pyridin-2-yl]-octahydrocyclopenta[c]pyrrol-5-amine]
EC50: < 10 µM

FC(F)Cn1ncc2ncc(N3C[C@H]4CN(c5cccc(C(F)(F)F)n5)C[C@H]4C3)nc21 [Compound 45, rac-2-[(3aR,6aS)-5-[1-(2,2-difluoroethyl)-1H-pyrazolo[3,4-b]pyrazin-6-yl]-octahydropyrrolo[3,4-c]pyrrol-2-yl]-6-(trifluoromethyl)pyridine]
EC50: > 100 µM

COc1cnc(N2C[C@H]3C[C@H](Nc4cnc5cnn(CC(F)F)c5n4)C[C@H]3C2)cn1 [Compound 77, 1-(2,2-difluoroethyl)-N-((3aR,5s,6aS)-2-(5-methoxypyrazin-2-yl)octahydrocyclopenta[c]pyrrol-5-yl)-1H-pyrazolo[3,4-b]pyrazin-6-amine]
EC50: > 100 µM

FC(F)Cn1ncc2ncc(N[C@@H]3C[C@@H]4CN(c5cccnc5C(F)(F)F)C[C@@H]4C3)nc21 [Compound 36, (3aR,5S,6aS)—N-[1-(2,2-difluoroethyl)-1H-pyrazolo[3,4-b]pyrazin-6-yl]-2-[2-(trifluoromethyl)pyridin-3-yl]-octahydrocyclopenta[c]pyrrol-5-amine]
EC50: < 10 µM

FC(F)Cn1ncc2ncc(N3C[C@H]4CCN(c5ccncc5C(F)(F)F)C[C@H]4C3)nc21 (racemic) [Compound 22, rac-4-[(3aR,7aR)-2-[1-(2,2-difluoroethyl)-1H-pyrazolo[3,4-b]pyrazin-6-yl]-octahydro-1H-pyrrolo[3,4-c]pyridin-5-yl]-3-(trifluoromethyl)pyridine]
EC50: < 10 µM

FC(F)Cn1ncc2ncc(N3CC4CC(Oc5cccc(C(F)(F)F)n5)CC4C3)nc21 (stereo not drawn) [Compound 29, 2-({2-[1-(2,2-difluoroethyl)-1H-pyrazolo[3,4-b]pyrazin-6-yl]-octahydrocyclopenta[c]pyrrol-5-yl}oxy)-6-(trifluoromethyl)pyridine]
EC50: < 10 µM

COc1cncc(N2C[C@H]3C[C@H](Nc4cnc5cnn(CC(F)F)c5n4)C[C@H]3C2)n1 [Compound 76, 1-(2,2-difluoroethyl)-N-((3aR,5s,6aS)-2-(6-methoxypyrazin-2-yl)octahydrocyclopenta[c]pyrrol-5-yl)-1H-pyrazolo[3,4-b]pyrazin-6-amine]
EC50: 10 to 50 µM

FC(F)Cn1ncc2ncc(N[C@@H]3CC[C@@H]4CN(c5cccc(C(F)(F)F)n5)C[C@@H]4C3)nc21 (single isomer, unassigned) [Compound 71]
EC50: 10 to 50 µM

FC(F)Cn1ncc2ncc(N[C@@H]3C[C@@H]4CN(c5cc(C(F)(F)F)ccn5)C[C@@H]4C3)nc21 [Compound 33, (3aR,5S,6aS)—N-[1-(2,2-difluoroethyl)-1H-pyrazolo[3,4-b]pyrazin-6-yl]-2-[4-(trifluoromethyl)pyridin-2-yl]-octahydrocyclopenta[c]pyrrol-5-amine]
EC50: < 10 µM

FC(F)Cn1ncc2ncc(N3CC4CC(Oc5cc(C(F)(F)F)ccn5)CC4C3)nc21 (stereo not drawn) [Compound 30, 2-({2-[1-(2,2-difluoroethyl)-1H-pyrazolo[3,4-b]pyrazin-6-yl]-octahydrocyclopenta[c]pyrrol-5-yl}oxy)-4-(trifluoromethyl)pyridine]
EC50: < 10 µM

FC(F)Cn1ncc2ncc(N[C@H]3C[C@@H]4CN(c5cc(C(F)(F)F)ccn5)C[C@@H]4C3)nc21 [Compound 35, (3aR,5R,6aS)—N-[1-(2,2-difluoroethyl)-1H-pyrazolo[3,4-b]pyrazin-6-yl]-2-[4-(trifluoromethyl)pyridin-2-yl]-octahydrocyclopenta[c]pyrrol-5-amine]
EC50: < 10 µM

FC(F)Cn1ncc2ncc(N3CC[C@@H]4CN(c5cccc(C(F)(F)F)n5)C[C@@H]4C3)nc21 (racemic) [Compound 7]
EC50: < 10 µM

FC(F)Cn1ncc2ncc(N3CC4CC(Oc5cccnc5C(F)(F)F)CC4C3)nc21 (stereo not drawn) [Compound 31, 3-({2-[1-(2,2-difluoroethyl)-1H-pyrazolo[3,4-b]pyrazin-6-yl]-octahydrocyclopenta[c]pyrrol-5-yl}oxy)-2-(trifluoromethyl)pyridine]
EC50: > 100 µM

FC(F)Cn1ncc2ncc(N[C@H]3C[C@@H]4CN(c5cncc(C(F)(F)F)c5)C[C@@H]4C3)nc21 [Compound 53, (3aR,5S,6aS)—N-[1-(2,2-difluoroethyl)-1H-pyrazolo[3,4-b]pyrazin-6-yl]-2-[5-(trifluoromethyl)pyridin-3-yl]-octahydrocyclopenta[c]pyrrol-5-amine]
EC50: < 10 µM

FC(F)Cn1ncc2ncc(N[C@H]3C[C@@H]4CN(c5ccc(C(F)(F)F)cn5)C[C@@H]4C3)nc21 [Compound 40, (3aR,5S,6aS)—N-[1-(2,2-difluoroethyl)-1H-pyrazolo[3,4-b]pyrazin-6-yl]-2-[5-(trifluoromethyl)pyridin-2-yl]-octahydrocyclopenta[c]pyrrol-5-amine]
EC50: 10 to 50 µM

FC(F)Cn1ncc2ncc(N[C@H]3C[C@@H]4CN(c5cccnc5C(F)(F)F)C[C@@H]4C3)nc21 [Compound 37, (3aR,5R,6aS)—N-[1-(2,2-difluoroethyl)-1H-pyrazolo[3,4-b]pyrazin-6-yl]-2-[2-(trifluoromethyl)pyridin-3-yl]-octahydrocyclopenta[c]pyrrol-5-amine]
EC50: < 10 µM

FC(F)Cn1ncc2ncc(N[C@H]3C[C@@H]4CN(c5ccc(C(F)(F)F)nc5)C[C@@H]4C3)nc21 [Compound 42, (3aR,5S,6aS)—N-[1-(2,2-difluoroethyl)-1H-pyrazolo[3,4-b]pyrazin-6-yl]-2-[6-(trifluoromethyl)pyridin-3-yl]-octahydrocyclopenta[c]pyrrol-5-amine]
EC50: 10 to 50 µM

FC(F)Cn1ncc2ncc(N[C@H]3C[C@@H]4CN(c5cncc(C(F)(F)F)n5)C[C@@H]4C3)nc21 [Compound 78, 1-(2,2-difluoroethyl)-N-((3aR,5s,6aS)-2-(6-(trifluoromethyl)pyrazin-2-yl)octahydrocyclopenta[c]pyrrol-5-yl)-1H-pyrazolo[3,4-b]pyrazin-6-amine]
EC50: < 10 µM

FC(F)Cn1ncc2ncc(N3CC[C@@H]4CN(c5ncccc5C(F)(F)F)C[C@@H]4C3)nc21 (racemic) [Compound 5]
EC50: < 10 µM

FC(F)Cn1ncc2ncc(N3CC[C@@H]4CN(c5cccnc5C(F)(F)F)C[C@@H]4C3)nc21 (racemic) [Compound 2, rac-3-[(3aR,7aS)-5-[1-(2,2-difluoroethyl)-1H-pyrazolo[3,4-b]pyrazin-6-yl]-octahydro-1H-pyrrolo[3,4-c]pyridin-2-yl]-2-(trifluoromethyl)pyridine]
EC50: < 10 µM

FC(F)Cn1ncc2ncc(N[C@@H]3C[C@@H]4CN(c5cncc(C(F)(F)F)c5)C[C@@H]4C3)nc21 [Compound 52, (3aR,5S,6aS)—N-[1-(2,2-difluoroethyl)-1H-pyrazolo[3,4-b]pyrazin-6-yl]-2-[5-(trifluoromethyl)pyridin-3-yl]-octahydrocyclopenta[c]pyrrol-5-amine]
EC50: < 10 µM

FC(F)Cn1ncc2ncc(N3C[C@@H]4CCN(c5cccc(C(F)(F)F)n5)[C@@H]4C3)nc21 (racemic) [Compound 61, rac-2-[(3aR,6aR)-5-[1-(2,2-difluoroethyl)-1H-pyrazolo[3,4-b]pyrazin-6-yl]-octahydropyrrolo[2,3-c]pyrrol-1-yl]-6-(trifluoromethyl)pyridine]
EC50: 10 to 50 µM

FC(F)Cn1ncc2ncc(N3CC[C@@H]4CN(c5cc(C(F)(F)F)ccn5)C[C@@H]4C3)nc21 (racemic) [Compound 3]
EC50: < 10 µM

FC(F)Cn1ncc2ncc(N3C[C@H]4CCN(c5ccnc(C(F)(F)F)c5)C[C@H]4C3)nc21 (racemic) [Compound 23, rac-4-[(3aR,7aR)-2-[1-(2,2-difluoroethyl)-1H-pyrazolo[3,4-b]pyrazin-6-yl]-octahydro-1H-pyrrolo[3,4-c]pyridin-5-yl]-2-(trifluoromethyl)pyridine]
EC50: 10 to 50 µM

FC(F)Cn1ncc2ncc(N[C@H]3C[C@@H]4CN(c5cc(C(F)(F)F)cnn5)C[C@@H]4C3)nc21 [Compound 83, 1-(2,2-difluoroethyl)-N-((3aR,5s,6aS)-2-(5-(trifluoromethyl)pyridazin-3-yl)octahydrocyclopenta[c]pyrrol-5-yl)-1H-pyrazolo[3,4-b]pyrazin-6-amine]
EC50: 10 to 50 µM

FC(F)Cn1ncc2ncc(N[C@H]3C[C@@H]4CN(c5cnc(C(F)(F)F)cn5)C[C@@H]4C3)nc21 [Compound 79, 1-(2,2-difluoroethyl)-N-((3aR,5s,6aS)-2-(5-(trifluoromethyl)pyrazin-2-yl)octahydrocyclopenta[c]pyrrol-5-yl)-1H-pyrazolo[3,4-b]pyrazin-6-amine]
EC50: 10 to 50 µM

Reference: patent publication US20250230172A1 (Vanqua Bio, Inc., priority 2021, published 2025)
